Data from ChEMBL document CHEMBL5252528, “Transient Receptor Potential Melastatin 8 Channel (TRPM8) Modulation: Cool Entryway for Treating Pain and Cancer” (J Med Chem, 2016).

Tests used:
[1] = target: T1, Transient receptor potential cation channel subfamily M member 8 (Homo sapiens, UniProt Q7Z2W7); experiment: Agonist activity at TRPM8 (unknown origin)
[2] = target: Transient receptor potential cation channel subfamily M member 8 (Mus musculus, UniProt Q8R4D5); experiment: Agonist activity at mouse TRMP8 expressed in HEK293 cells; format: cell-based
[3] = target: T1, Transient receptor potential cation channel subfamily M member 8; experiment: […] activity at human TRMP8 expressed in HEK293 cells incubated for 24 hrs by HTS assay; format: cell-based
[4] = target: T1, Transient receptor potential cation channel subfamily M member 8; experiment: Antagonist activity at TRPM8 (unknown origin)
[5] = target: Transient receptor potential cation channel subfamily V member 1 (Homo sapiens, UniProt Q8NER1); experiment: Modulation of TRPV1 (unknown origin) by fluorometric imaging plate reader analysis
[6] = target: T1, Transient receptor potential cation channel subfamily M member 8; experiment: Antagonist activity at human TRMP8 incubated for 24 hrs; format: cell-based, HEK293
[7] = target: T1, Transient receptor potential cation channel subfamily M member 8; experiment: Antagonist activity at human TRPM8 expressed in HEK293 cells assessed as reduction in menthol induced calcium influx; format: cell-based
[8] = target: T1, Transient receptor potential cation channel subfamily M member 8; experiment: Agonist activity at TRPM8 (unknown origin) by fluorometric imaging plate reader analysis
Rattus norvegicus [9] = experiment: Antihypersensitivity activity at rat assessed as reduction in wet-dog shakes at 1 mg/kg relative to control; format: functional
[10] = target: T1, Transient receptor potential cation channel subfamily M member 8; experiment: Antagonist activity at human TRPM8 expressed in CHO cells; format: cell-based
[11] = target: T1, Transient receptor potential cation channel subfamily M member 8; experiment: Agonist activity at human TRMP8 expressed in HEK293 cells; format: cell-based
[12] = target: T1, Transient receptor potential cation channel subfamily M member 8; experiment: Antagonist activity at human TRPM8 expressed in […] induced HEK293 cells; format: cell-based
[13] = target: T1, Transient receptor potential cation channel subfamily M member 8; experiment: Agonist activity at human recombinant TRPM8
[14] = target: T1, Transient receptor potential cation channel subfamily M member 8; experiment: Antagonist activity at TRPM8 (unknown origin) by fluorescence based assay
Rattus norvegicus [15] = organism: Rattus norvegicus; experiment: Antihypersensitivity activity at rat assessed as reduction in pain relative to control; format: functional
Rattus norvegicus [16] = experiment: Reversal of icilin induced behaviours in rat at 10 mg/kg, po relative to control; format: functional
Rattus norvegicus [17] = experiment: Antihypersensitivity activity at cfa induced rat assessed as thermal and mechanical hyperalgesia at 10 mg/kg, po relative to control; format: functional
Rattus norvegicus [18] = organism: Rattus norvegicus; experiment: Antihypersensitivity activity at rat assessed as cardiovascular pressor responses relative to control; format: functional
Rattus norvegicus [19] = experiment: Antihypersensitivity activity at carrageenan induced rat assessed as reduction in heat hypersensitivity at 30 mg/kg, po relative to control; format: functional
[20] = target: T1, Transient receptor potential cation channel subfamily M member 8; experiment: […] activity at human TRMP8 expressed in HEK293 cells measured after 24 hrs of cold activation by patch clamp assay; format: cell-based
Rattus norvegicus [21] = experiment: Antinociceptive activity at rat assessed as reduction in pain at 30 mg/kg, po relative to control; format: functional
Rattus norvegicus [22] = organism: Rattus norvegicus; experiment: Antihypersensitivity activity at rat assessed as reduction in wet-dog shakes relative to control; format: functional
[23] = target: T1, Transient receptor potential cation channel subfamily M member 8; experiment: […] activity at human TRMP8 expressed in HEK293 cells measured after 24 hrs of menthol activation by patch clamp assay; format: cell-based
Rattus norvegicus [24] = experiment: Reversal of icilin induced behaviours in rat at 30 mg/kg, po relative to control; format: functional
[25] = target: Transient receptor potential cation channel subfamily A member 1 (Homo sapiens, UniProt O75762); experiment: Agonist activity at TRPA1 (unknown origin)
[26] = target: T1, Transient receptor potential cation channel subfamily M member 8; experiment: Antagonist activity at human TRPM8 expressed in HEK293 cells; format: cell-based
Rattus norvegicus [27] = experiment: Antihypersensitivity activity at icilin induced rat assessed as reduction in wet-dog shakes at 3 mg/kg relative to control; format: functional
[28] = target: Transient receptor potential cation channel subfamily M member 8 (Rattus norvegicus) (UniProt Q8R455); experiment: In vivo antagonist activity at TRPM8 in po dosed rat assessed as shaking behaviour; format: functional, organism-based
Transient receptor potential cation channel subfamily M member 8 (Rattus norvegicus), sequence (Q8R455 whole entry, looked up): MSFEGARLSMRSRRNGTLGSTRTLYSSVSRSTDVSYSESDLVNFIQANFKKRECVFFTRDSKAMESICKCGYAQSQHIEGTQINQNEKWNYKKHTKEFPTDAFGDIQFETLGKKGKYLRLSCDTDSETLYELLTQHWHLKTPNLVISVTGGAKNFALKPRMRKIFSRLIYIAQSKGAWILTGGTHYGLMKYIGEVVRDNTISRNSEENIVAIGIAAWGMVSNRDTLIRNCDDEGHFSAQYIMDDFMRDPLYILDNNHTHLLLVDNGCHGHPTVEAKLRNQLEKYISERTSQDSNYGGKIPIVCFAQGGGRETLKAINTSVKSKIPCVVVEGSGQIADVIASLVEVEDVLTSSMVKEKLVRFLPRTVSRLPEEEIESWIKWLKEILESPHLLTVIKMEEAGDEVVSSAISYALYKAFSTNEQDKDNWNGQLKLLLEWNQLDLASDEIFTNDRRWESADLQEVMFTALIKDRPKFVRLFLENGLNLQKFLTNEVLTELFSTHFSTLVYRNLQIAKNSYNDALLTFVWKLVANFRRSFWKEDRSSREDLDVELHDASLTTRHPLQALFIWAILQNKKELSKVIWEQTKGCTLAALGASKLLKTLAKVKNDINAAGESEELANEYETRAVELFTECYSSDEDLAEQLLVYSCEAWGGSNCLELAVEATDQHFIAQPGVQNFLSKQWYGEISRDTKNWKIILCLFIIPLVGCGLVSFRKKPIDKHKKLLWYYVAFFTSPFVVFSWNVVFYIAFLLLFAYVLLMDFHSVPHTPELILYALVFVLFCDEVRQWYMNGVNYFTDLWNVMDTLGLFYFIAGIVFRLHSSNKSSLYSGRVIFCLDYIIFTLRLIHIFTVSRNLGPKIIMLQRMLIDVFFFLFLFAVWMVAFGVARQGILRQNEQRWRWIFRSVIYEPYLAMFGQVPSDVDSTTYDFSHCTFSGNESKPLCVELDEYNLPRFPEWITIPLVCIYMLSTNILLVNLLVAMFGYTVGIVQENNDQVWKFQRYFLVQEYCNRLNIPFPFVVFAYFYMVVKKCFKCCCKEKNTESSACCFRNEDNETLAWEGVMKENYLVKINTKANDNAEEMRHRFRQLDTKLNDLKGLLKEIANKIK

T1 sequence (Q7Z2W7 whole entry): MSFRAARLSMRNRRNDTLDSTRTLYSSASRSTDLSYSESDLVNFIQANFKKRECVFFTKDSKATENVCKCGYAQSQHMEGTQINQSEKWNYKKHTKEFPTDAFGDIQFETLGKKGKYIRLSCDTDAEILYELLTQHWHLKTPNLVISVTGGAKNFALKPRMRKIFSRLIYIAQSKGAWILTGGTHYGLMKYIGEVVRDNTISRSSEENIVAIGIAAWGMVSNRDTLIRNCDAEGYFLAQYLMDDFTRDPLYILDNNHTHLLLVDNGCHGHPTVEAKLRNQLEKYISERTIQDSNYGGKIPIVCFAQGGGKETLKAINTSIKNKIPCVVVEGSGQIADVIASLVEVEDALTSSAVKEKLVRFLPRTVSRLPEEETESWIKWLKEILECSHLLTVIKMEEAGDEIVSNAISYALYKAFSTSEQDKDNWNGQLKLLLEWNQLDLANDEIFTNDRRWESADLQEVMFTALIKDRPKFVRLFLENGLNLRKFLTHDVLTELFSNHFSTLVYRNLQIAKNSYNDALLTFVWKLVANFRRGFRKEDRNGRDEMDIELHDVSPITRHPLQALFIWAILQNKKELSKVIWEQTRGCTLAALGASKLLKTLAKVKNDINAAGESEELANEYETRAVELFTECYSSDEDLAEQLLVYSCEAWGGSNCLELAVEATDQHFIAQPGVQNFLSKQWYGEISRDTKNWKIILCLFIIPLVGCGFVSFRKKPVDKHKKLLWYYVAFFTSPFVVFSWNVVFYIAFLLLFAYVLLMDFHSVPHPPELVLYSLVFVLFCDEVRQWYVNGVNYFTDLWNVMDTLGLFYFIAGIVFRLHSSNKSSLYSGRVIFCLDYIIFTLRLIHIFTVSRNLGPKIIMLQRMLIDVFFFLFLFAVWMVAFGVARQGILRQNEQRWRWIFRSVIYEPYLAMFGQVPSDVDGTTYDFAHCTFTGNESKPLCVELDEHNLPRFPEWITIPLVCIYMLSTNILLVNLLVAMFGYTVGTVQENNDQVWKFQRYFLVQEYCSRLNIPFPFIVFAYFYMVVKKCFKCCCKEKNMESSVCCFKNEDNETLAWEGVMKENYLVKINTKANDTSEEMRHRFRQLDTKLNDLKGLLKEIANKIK
Transient receptor potential cation channel subfamily M member 8 (Mus musculus, UniProt Q8R4D5), sequence (Q8R4D5 whole entry): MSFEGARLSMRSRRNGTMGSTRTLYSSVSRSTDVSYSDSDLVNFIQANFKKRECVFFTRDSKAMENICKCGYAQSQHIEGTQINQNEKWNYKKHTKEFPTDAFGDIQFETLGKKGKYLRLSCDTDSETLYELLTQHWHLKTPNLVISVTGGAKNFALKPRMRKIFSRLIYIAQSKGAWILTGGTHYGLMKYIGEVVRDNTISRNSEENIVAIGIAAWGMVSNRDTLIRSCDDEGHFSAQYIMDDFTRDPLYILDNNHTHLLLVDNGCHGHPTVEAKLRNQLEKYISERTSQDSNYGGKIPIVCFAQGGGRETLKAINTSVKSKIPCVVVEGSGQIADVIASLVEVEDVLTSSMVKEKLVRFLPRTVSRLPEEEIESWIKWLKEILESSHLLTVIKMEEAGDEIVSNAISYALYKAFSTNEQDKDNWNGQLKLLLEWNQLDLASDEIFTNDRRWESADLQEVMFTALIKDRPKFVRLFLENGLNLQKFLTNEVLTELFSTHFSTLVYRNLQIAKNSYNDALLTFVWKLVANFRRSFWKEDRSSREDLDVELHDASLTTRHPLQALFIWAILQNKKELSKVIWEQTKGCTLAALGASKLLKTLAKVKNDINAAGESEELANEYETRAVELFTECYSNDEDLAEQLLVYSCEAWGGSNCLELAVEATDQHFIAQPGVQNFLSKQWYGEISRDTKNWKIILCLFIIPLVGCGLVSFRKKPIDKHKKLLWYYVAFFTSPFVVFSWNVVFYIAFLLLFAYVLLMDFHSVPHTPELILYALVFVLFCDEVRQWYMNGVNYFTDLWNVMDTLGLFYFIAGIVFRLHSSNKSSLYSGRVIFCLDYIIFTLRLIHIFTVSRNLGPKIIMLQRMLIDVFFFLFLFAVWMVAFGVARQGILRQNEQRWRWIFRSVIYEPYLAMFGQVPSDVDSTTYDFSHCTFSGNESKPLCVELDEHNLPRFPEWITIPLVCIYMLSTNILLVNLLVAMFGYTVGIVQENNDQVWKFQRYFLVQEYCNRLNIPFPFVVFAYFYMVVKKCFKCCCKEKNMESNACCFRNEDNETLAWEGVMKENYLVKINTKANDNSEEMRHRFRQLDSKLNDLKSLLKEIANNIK
Transient receptor potential cation channel subfamily A member 1, sequence (O75762 whole entry): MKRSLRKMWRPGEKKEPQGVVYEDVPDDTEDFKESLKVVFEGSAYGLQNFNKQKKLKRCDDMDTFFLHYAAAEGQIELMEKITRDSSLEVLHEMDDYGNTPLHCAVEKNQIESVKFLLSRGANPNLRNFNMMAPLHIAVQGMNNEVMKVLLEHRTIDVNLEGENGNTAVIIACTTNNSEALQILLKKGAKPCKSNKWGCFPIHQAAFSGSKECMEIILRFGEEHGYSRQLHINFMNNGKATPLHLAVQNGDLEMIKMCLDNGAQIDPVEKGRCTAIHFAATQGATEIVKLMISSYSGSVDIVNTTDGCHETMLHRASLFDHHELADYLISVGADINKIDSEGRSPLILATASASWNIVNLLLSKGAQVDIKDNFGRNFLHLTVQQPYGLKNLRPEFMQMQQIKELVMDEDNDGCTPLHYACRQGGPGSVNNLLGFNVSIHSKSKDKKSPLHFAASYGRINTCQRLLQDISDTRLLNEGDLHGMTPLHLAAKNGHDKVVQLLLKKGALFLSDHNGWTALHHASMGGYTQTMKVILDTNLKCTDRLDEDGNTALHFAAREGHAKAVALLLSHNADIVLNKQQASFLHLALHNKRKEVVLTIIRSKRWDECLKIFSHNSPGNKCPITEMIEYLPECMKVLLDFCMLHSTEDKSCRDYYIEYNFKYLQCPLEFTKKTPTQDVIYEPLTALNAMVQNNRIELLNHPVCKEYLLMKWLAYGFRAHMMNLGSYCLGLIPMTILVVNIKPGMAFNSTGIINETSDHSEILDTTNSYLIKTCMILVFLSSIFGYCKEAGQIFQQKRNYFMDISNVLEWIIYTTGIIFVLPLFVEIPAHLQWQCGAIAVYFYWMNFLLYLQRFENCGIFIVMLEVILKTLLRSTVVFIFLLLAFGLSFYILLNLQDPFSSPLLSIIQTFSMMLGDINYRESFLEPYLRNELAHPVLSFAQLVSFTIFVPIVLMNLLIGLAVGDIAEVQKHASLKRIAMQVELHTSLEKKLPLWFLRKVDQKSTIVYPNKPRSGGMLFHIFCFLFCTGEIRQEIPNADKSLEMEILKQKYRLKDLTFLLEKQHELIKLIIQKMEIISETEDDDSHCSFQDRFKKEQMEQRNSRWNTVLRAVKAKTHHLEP

Compound Cc1cc(NC(C)C)no1 has an EC50 [1] of 0.1 µM.
With CC(C)=CCC/C(C)=C/CO [GERANIOL] the EC50 [2] was 6000 µM.
Cc1c(N(Cc2ccc(F)c(C(F)(F)F)c2)S(=O)(=O)N2CCC(C(=O)O)CC2)sc2ccccc12 showed an IC50 [3] of 0.026 µM.
Cc1c(N(Cc2ccc(OC(F)(F)F)cc2)S(=O)(=O)CCN2CCC(c3ccccc3)CC2)sc2ccccc12 gave an IC50 [3] of 0.026 µM.
c1ccc(CN(CCc2c[nH]c3ccccc23)Cc2ccccc2)cc1 gave an IC50 [4] of 0.8 µM and an IC50 [5] of 0.035 µM.
CCn1/c(=N/S(=O)(=O)c2ccccc2)n(Cc2ccc(C(F)(F)F)c(F)c2)c2cc(C(F)(F)F)ccc21 was tested, and the IC50 [6] was 0.005 µM.
CCCCCc1cc(O)c(C/C=C(\C)CCC=C(C)C)c(O)c1 [CANNABIGEROL] was tested, and the IC50 [4] was 0.16 µM.
Compound CCn1c(N(Cc2ccc(C(F)(F)F)cc2)S(=O)(=O)c2ccccc2)nc2cc(F)ccc21 has an IC50 [6] of 0.006 µM.
In the case of COc1cc(CN(CCN)c2nc3ccccc3s2)ccc1OCc1ccccc1F, the IC50 [4] is reported as < 0.02 µM.
For Cc1ccc2nc(C(F)(F)F)n(-c3ccc(C(=O)CN4C(=O)NC5(CCC(F)(F)CC5)C4=O)cc3)c2n1, the IC50 [7] was < 0.01 µM.
With Clc1ccccc1C(c1ccccc1)(c1ccccc1)n1ccnc1 [CLOTRIMAZOLE] the IC50 [4] was 8 µM.
In the case of COc1ccc2c(c1)n(CCN)c(=O)n2C(=O)[C@@H]1C[C@H](C)CC[C@H]1C(C)C, the EC50 [8] is reported as < 5 µM.
CC(C)[C@@H]1CC[C@@H](C)C[C@H]1OC(=O)[C@@H](C)O showed an EC50 [8] of 160 µM.
In the case of O=C(N[C@]1(c2ccc(OC(F)(F)F)cc2)CCOc2cccnc21)c1ccc2[nH]cnc2c1, the inhibition in vivo at 1 mg/kg (Rattus norvegicus [9]) is reported as > 90% and the IC50 [10] is reported as 0.004 µM.
With C=CCc1ccc(O)c(OC)c1 [EUGENOL] the EC50 [11] was 66 µM.
Work on CC12CCC(CC1)C(C)(C)O2 [EUCALYPTOL] yielded an EC50 [2] of 7000 µM.
NCCc1c[nH]c2ccc(Oc3ccccc3)cc12 was tested, and the IC50 [12] was 0.34 µM.
Compound COc1nc(-c2ccccc2Cl)cc2nc(-c3c(Cl)c(C(C)(C)C)nn3C)[nH]c12 has an IC50 [6] of 0.0035 µM.
With CCCCCc1cc(O)c2c(c1)OC(C)(C)[C@@H]1CCC(C)=C[C@@H]21 [DRONABINOL] the IC50 [4] was 0.16 µM.
CCCCC/C=C/C/C=C\C/C=C/C/C=C/CCCC(=O)NCCc1ccc(O)c(O)c1 was tested, and the IC50 [4] was 0.7 µM.
Compound COc1cnc(-c2ccccn2)nc1CC(C)C has an EC50 [13] of 0.1 µM.
With COc1cc(CNC(=O)CCCC/C=C/C(C)C)ccc1O [CAPSAICIN] the IC50 [4] was 1 µM.
COC(=O)C(NCc1ccccc1)[C@H](Cc1ccccc1)NC(=O)OCc1ccccc1 (stereo partly drawn) showed an IC50 [14] of 3 µM.
In the case of FC(F)(F)c1ccccc1-c1cc(C(F)(F)F)c2[nH]c(C3=NOC4(CCCCC4)C3)nc2c1, the “inhibition (INH)” value (Rattus norvegicus [15]) is reported as 83% and the Activity (Rattus norvegicus [16]) is reported as 98%.
In the case of CC(C)[C@@H]1CC[C@@H](C)C[C@H]1C(=O)NCC(NC(=O)[C@H](C)N)c1ccccc1 (stereo partly drawn), the EC50 [8] is reported as < 5 µM.
C=CCc1cc(OC)c(OC(C)C(O[C@@H]2C[C@H](C)CC[C@H]2C(C)C)c2ccc(OC)c(OC)c2)c(OC)c1 (stereo partly drawn) gave an EC50 [8] of 10 µM.
For Cc1c(N(Cc2ccc(F)c(C(F)(F)F)c2)S(=O)(=O)c2ccc(C(=O)O)cc2)sc2ccccc12, the Activity (Rattus norvegicus [17]) was 91%, the “inhibition (INH)” value (Rattus norvegicus [18]) was 75% and the inhibition in vivo at 30 mg/kg (Rattus norvegicus [19]) was 64%. It also gave an IC50 [20] of 0.0023 µM, an inhibition in vivo at 30 mg/kg (Rattus norvegicus [21]) of 69% and an ED50 (Rattus norvegicus [22]) of 2.5 mg/kg. For the same compound, the IC50 [23] was 0.0011 µM.
Compound CC(C)[C@@H]1CC[C@@H](C)C[C@H]1C(=O)Nc1ccc(S(=O)(=O)Nc2ncccn2)cc1 has an EC50 [8] of 4 µM.
CC(C)OP(=O)(OC(C)C)[C@@H](Cc1ccc(F)c(C(F)(F)F)c1)c1sc2ccccc2c1Br was tested, and the IC50 [3] was 0.009 µM and the Activity (Rattus norvegicus [24]) was 80%.
Clc1ccc(-c2nnc(N3CCOCC3)n2-c2ccccc2)cc1 was tested, and the EC50 [1] was 45 µM and the EC50 [25] was 4 µM.
Compound COc1ccc(CCCOC(Cn2ccnc2)c2ccc(OC)cc2)cc1 (stereo not drawn) has an IC50 [4] of 0.8 µM.
COc1cc(CN(CCN)C(=O)NC(C)c2ccccc2)ccc1OCc1ccccc1 (stereo not drawn) gave an IC50 [26] of 0.05 nM.
CCCCC/C=C/C/C=C\C/C=C/C/C=C/CCCC(=O)NCCO gave an IC50 [4] of 0.15 µM.
COc1ccc(NC(=O)[C@@H]2C[C@H](C)CC[C@H]2C(C)C)c(NC(=O)[C@@H](C)N)c1 was tested, and the EC50 [8] was 3 µM.
Clc1ccc(COC(Cn2ccnc2)c2ccc(Cl)cc2Cl)cc1 (stereo not drawn) [ECONAZOLE] showed an IC50 [4] of 0.42 µM.
Compound C[C@H](N)[C@H](O)C/C=C\C/C=C\C/C=C\C/C=C\C/C=C\C/C=C\CCCCCC[C@@H](O)[C@H](C)N has an IC50 [4] of 6 µM.
Compound C=C(C)[C@]12C[C@@H](C)[C@@]34OC(Cc5ccccc5)(O[C@@H]1C3C=C(COC(=O)Cc1ccc(O)c(OC)c1)C[C@]1(O)C(=O)C(C)=C[C@@H]41)O2 (stereo partly drawn) has an IC50 [4] of 0.15 µM.
COc1ccccc1C(=O)N([C@H]1CCc2c(F)cc(Cl)cc21)[C@@H](C(N)=O)c1ccccc1 showed an inhibition in vivo at 3 mg/kg (Rattus norvegicus [27]) of 100%.
With O=C(O)c1ccc(S(=O)(=O)N(Cc2ccc(OC(F)(F)F)cc2)c2ncc(C(F)(F)F)cc2Cl)cc1 the ED50 [28] was 0.65 mg/kg.
CCCCCc1cc2c(c(O)c1C(=O)O)[C@@H]1C=C(C)CC[C@H]1C(C)(C)O2 [DELTA9-TETRAHYDROCANNABINOLIC ACID A] was tested, and the IC50 [4] was 0.15 µM.
Compound C=C(C)[C@@H]1CCC(C)=C[C@H]1c1c(O)cc(CCCCC)cc1O [CANNABIDIOL] has an IC50 [4] of 0.06 µM.
COc1ccc(NC(=O)[C@@H]2C[C@H](C)CC[C@H]2C(C)C)cc1 [ACOLTREMON] showed an EC50 [8] of 12 µM.
